In patent US20240226131A1, “2'-CHLORO-2'-FLUORO-N2-AMINO-N6-M[…] NUCLEOTIDES FOR […]” (priority 2021, published 2024):

Columns and labels:
[1] = system: Dengue virus (DENV-2), New Guinea C; assay: microbe, parasite or virus in culture; assay type: cell-based; settings: DENV2, Huh-7, 144 h, read-out: EC50 (concentration required to prevent virus-induced CPE by 50%)
in vitro = settings: human
[2] = system: Yellow Fever virus (YFV 17D); assay: microbe, parasite or virus in culture; assay type: cell-based; settings: Huh-7, 120 h, read-out: EC50 (concentration required to prevent virus-induced CPE by 50%)
[3] = system: West Nile virus (WN02 Kern 515); assay: microbe, parasite or virus in culture; assay type: cell-based; settings: Huh-7, 144 h, read-out: EC50 (concentration required to prevent virus-induced CPE by 50%)

For CNc1nc(N)nc2c1ncn2[C@@H]1O[C@H](CO[P@@](=O)(N[C@@H](C)C(=O)OC(C)C)Oc2ccccc2)[C@@H](O)[C@]1(F)Cl [Compound 8, (S)-Isopropyl-2-(((S)-(((2R,3R,4S,5R)-5-(2-amino-6-(methylamino)-9H-purin-9-yl)-4-chloro-4-fluoro-3-hydroxytetrahydrofuran-2-yl)methoxy)(phenoxy)phosphoryl)amino) propanoate], the EC50 [1] was 320 nM, the CC50 (in vitro) was greater than 100 µM and the EC50 [2] was 120 nM. It also gave an EC50 [3] of 320 nM.
